Source: patent US9975896B2, “Inhibitors of transcription factors and uses thereof” (Dana-Farber Cancer Institute, Inc., priority 2013, dated 2018)
Substitutions are numbered along the chain they refer to. Like-named read-outs stand apart in the source and are kept apart here.

Tests used:
Experiment in all cases: BromoScan selectivity panel (Kd)
Format in all cases: binding
[1] = target: T1, ATAD2A (Homo sapiens, UniProt Q6PL18)
T1 sequence (Q6PL18 981-1108 limits assumed): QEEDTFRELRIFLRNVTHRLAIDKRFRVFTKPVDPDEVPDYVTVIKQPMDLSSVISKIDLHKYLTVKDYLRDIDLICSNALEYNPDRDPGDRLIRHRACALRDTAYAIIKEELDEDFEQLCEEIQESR

[2] = target: T2, ATAD2B (Homo sapiens, UniProt Q9ULI0)
T2 sequence (Q9ULI0 953-1085 limits assumed): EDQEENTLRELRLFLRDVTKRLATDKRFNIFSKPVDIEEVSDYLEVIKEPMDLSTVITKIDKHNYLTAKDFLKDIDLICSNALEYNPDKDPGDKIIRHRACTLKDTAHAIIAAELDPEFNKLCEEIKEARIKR

[3] = target: T3, BAZ2A (Homo sapiens, UniProt Q9UIF9)
T3 sequence (Q9UIF9 1796-1899 limits assumed): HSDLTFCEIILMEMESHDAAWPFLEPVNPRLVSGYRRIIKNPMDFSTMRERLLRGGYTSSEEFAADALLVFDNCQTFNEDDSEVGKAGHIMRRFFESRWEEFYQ

[4] = target: T4, BRD3(2) (Homo sapiens, UniProt Q15059)
T4 construct: the bromodomain-containing protein is BRD3(2)

[5] = target: T5, BRD4(2) (Homo sapiens, UniProt O60885)
T5 construct: the bromodomain-containing protein is BRD4(2)

[6] = target: T6, BRD9 (Homo sapiens, UniProt Q9H8M2)
T6 sequence (Q9H8M2 130-250 limits assumed): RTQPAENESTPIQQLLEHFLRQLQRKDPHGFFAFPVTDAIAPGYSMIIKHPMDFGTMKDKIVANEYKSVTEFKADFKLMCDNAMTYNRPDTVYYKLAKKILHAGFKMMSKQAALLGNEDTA

[7] = target: T7, BRDT(1) (Homo sapiens, UniProt Q58F21)
T7 construct: the bromodomain-containing protein is BRDT(1)

[8] = target: BRDT(2) (Homo sapiens, UniProt Q58F21)
[9] = target: T8, EP300 (Homo sapiens, UniProt Q09472)
T8 sequence (Q09472 1040-1161 limits assumed): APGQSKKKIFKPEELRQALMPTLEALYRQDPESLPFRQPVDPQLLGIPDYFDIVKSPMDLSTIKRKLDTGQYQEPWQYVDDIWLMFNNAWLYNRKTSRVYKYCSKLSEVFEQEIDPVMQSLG

[10] = target: FALZ (Homo sapiens, UniProt Q12830)
[11] = target: T9, TAF1(2) (Homo sapiens, UniProt P21675)
T9 construct: TAF1(2)
T9 sequence (P21675 1519-1628 limits assumed): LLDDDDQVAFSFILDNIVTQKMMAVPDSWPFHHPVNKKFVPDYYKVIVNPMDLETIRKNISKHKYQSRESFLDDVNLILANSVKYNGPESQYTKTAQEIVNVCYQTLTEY

[12] = target: T10, TAF1L(2) (Homo sapiens, UniProt Q8IZX4)
T10 construct: TAF1L(2)
T10 sequence (Q8IZX4 1517-1626 limits assumed): T9 sequence (P21675 1519-1628 limits assumed) with V46M, M51V, V102I, L107I

[13] = target: T11, TRIM24(PHD Bromo.) (Homo sapiens, UniProt O15164)
T11 construct: TRIM24(PHD Bromo.)
T11 sequence (O15164 824-1006 limits assumed): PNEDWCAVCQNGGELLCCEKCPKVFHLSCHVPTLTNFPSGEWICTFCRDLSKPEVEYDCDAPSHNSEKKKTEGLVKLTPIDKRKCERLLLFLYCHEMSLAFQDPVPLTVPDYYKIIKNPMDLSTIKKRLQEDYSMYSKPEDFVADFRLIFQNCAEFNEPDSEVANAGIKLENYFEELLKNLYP

T4 sequence (Q15059 306-415 limits assumed): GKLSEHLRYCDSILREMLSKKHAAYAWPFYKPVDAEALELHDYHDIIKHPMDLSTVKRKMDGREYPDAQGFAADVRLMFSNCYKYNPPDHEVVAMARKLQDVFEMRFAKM

**Q.** `Cc1noc(C)c1-c1ccc(-c2nc3cnccn3c2NC(C)(C)C)cc1` [UMB32, N-(tert-butyl)-2-(4-(3,5-dimethylisoxazol-4-yl)phenyl)imidazo[1,2-a]pyrazin-3-amine] was tested. Which Kd ([1]; Table 8, read-out: Kd (nM) ATAD2A) did it give?
**A.** ≥ 40000 nM

**Q.** And the Kd ([1]; Table 9, read-out: BromoScan Kd, nM ATAD2A)?
**A.** ≥ 40000 nM

**Q.** And the Kd ([2]; Table 8, read-out: Kd (nM) ATAD2B)?
**A.** ≥ 40000 nM

**Q.** And the Kd ([2]; Table 9, read-out: BromoScan Kd, nM ATAD2B)?
**A.** ≥ 40000 nM

**Q.** And the Kd ([3]; Table 8, read-out: Kd (nM) BAZ2A)?
**A.** ≥ 40000 nM

**Q.** And the Kd ([3]; Table 9, read-out: BromoScan Kd, nM BAZ2A)?
**A.** ≥ 40000 nM

**Q.** And the Kd ([4]; Table 8, read-out: Kd (nM) BRD3(2))?
**A.** 38 nM

**Q.** And the Kd ([4]; Table 9, read-out: BromoScan Kd, nM BRD3(2))?
**A.** 38 nM

**Q.** What about the Kd ([5]; Table 8, read-out: Kd (nM) BRD4(2)) of the same compound?
**A.** 31 nM

**Q.** And the Kd ([5]; Table 9, read-out: BromoScan Kd, nM BRD4(2))?
**A.** 31 nM

**Q.** And the Kd ([6]; Table 8, read-out: Kd (nM) BRD9)?
**A.** ≥ 40000 nM

**Q.** And the Kd ([6]; Table 9, read-out: BromoScan Kd, nM BRD9)?
**A.** ≥ 40000 nM

**Q.** And the Kd ([7]; Table 8, read-out: Kd (nM) BRDT(1))?
**A.** 110 nM

**Q.** What about the Kd ([7]; Table 9, read-out: BromoScan Kd, nM BRDT(1)) of the same compound?
**A.** 110 nM

**Q.** What about the Kd ([8]; Table 8, read-out: Kd (nM) BRDT(2)) of the same compound?
**A.** 75 nM

**Q.** What about the Kd ([8]; Table 9, read-out: BromoScan Kd, nM BRDT(2)) of the same compound?
**A.** 75 nM

**Q.** What about the Kd ([9]; Table 8, read-out: Kd (nM) EP300) of the same compound?
**A.** 4500 nM

**Q.** And the Kd ([9]; Table 9, read-out: BromoScan Kd, nM EP300)?
**A.** 4500 nM

**Q.** What about the Kd ([10]; Table 8, read-out: Kd (nM) FALZ) of the same compound?
**A.** ≥ 40000 nM

**Q.** And the Kd ([10]; Table 9, read-out: BromoScan Kd, nM FALZ)?
**A.** ≥ 40000 nM

**Q.** And the Kd ([11]; Table 8, read-out: Kd (nM) TAF1(2))?
**A.** 560 nM

**Q.** What about the Kd ([11]; Table 9, read-out: BromoScan Kd, nM TAF1(2)) of the same compound?
**A.** 560 nM

**Q.** What about the Kd ([12]; Table 8, read-out: Kd (nM) TAF1L(2)) of the same compound?
**A.** 1300 nM

**Q.** What about the Kd ([12]; Table 9, read-out: BromoScan Kd, nM TAF1L(2)) of the same compound?
**A.** 1300 nM

**Q.** And the Kd ([13]; Table 8, read-out: Kd (nM) TRIM24(PHD Bromo.))?
**A.** ≥ 40000 nM

**Q.** What about the Kd ([13]; Table 9, read-out: BromoScan Kd, nM TRIM24(PHD, Bromo.)) of the same compound?
**A.** ≥ 40000 nM
